Assay results reported in article PMC13081163, “Discovery of a novel Nrf2 activator that modulates mitochondrial function in neurons by regulating DHRS3-Nrf2 interaction after ischemic stroke” (Theranostics, 2026).
Like-named read-outs stand apart in the source and are kept apart here.

Columns and labels:
[1] = 28-day long-term toxicity in rats (intragastric); type: in vivo, rat; settings: 28 days intragastric
Experimental: During the long-term toxicity test, rats in each group received daily intragastric administration for 28 consecutive days. Animals in the Sham group were administered a mixture of 99% sesame oil and 1% DMSO at a volume of 0.5 mL per rat. Rats in the remaining groups were intragastrically administered varying doses of the respective therapeutic agents.
During the 28-day long-term toxicity study, rats were euthanized following the completion of continuous intragastric administration. Livers and kidneys from both male and female rats in each group were photographed for macroscopic examination, and serum samples were collected for subsequent kit-based analysis. The liver/kidney index was obtained by dividing the weight of the liver/kidney by the body weight.

[2] = Acute (7-day i.v.) toxicity in rats; type: in vivo, rat; settings: 10 mg/kg i.v. daily for 7 days
Experimental: Cpd.51 was dissolved in solvent (10% DMSO, 10% Solutol HS-15 and 80% saline). It was injected (i.v.) at dose of 3 mg/kg or 5 mg/kg in a 0.5 mL volume. The Sham group and Vehicle group were treated simultaneously with an equal volume of solvent. In the experiment to explore the treatment time window, we merely administered the drug to the rats at different time points, while all other procedures remained unchanged. In the short-term toxicity study, 10 mg/kg Cpd.51 and Oma were administered via tail vein injection at 0.5 mL daily for 7 consecutive days.
Glutamic-pyruvic transaminase (GPT) kits (ml092635, mlbio, China), glutamic oxaloacetic transaminase (GOT) kits (ml092714, mlbio, China), creatinine (CRE) kits (M12C4L, mlbio, China) and blood urea nitrogen (BUN) kits (ml076479, China) were used to detect the serum of rats in order to evaluate liver and kidney functions. Male and female rats were randomly divided into Sham group, Cpd.51 group and Oma group. Doses were administered once daily at 10 mg/kg and body weights were recorded accordingly. Sham groups were given the same volume of solvent. After 7 days, the […] were sacrificed, serum was collected and tested according to the instructions.

[3] = system: ARE-luciferase reporter (Nrf2 activation), Hek-293T cells; assay: ARE-luciferase reporter gene assay; type: cell-based; settings: Homo sapiens; Hek-293T cells, 12 h after drug treatment
Experimental: The Hek-293T cells were cultured in 96-well plates 24 h before transfection with ARE-luciferase reporter plasmid (11548ES03, Yeasen, China) for 48 h according to the manufacturer's instructions. The Firefly luciferase activities was carried out 12 h after the drug treatment, as described by the manufacturer (11412ES81, Yeasen, China).

SH-SY5Y cells [4] = assay: Protection against OGD/R damage in SH-SY5Y cells (CCK-8); type: cell-based, human
Experimental: To mimic ischemic conditions in vitro, cells were washed with PBS and then cultured for 2.5 h at 37 °C in glucose-free medium under anaerobic conditions (5% hydrogen, 90% nitrogen, and 5% carbon dioxide). OGD process was terminated by transferring cells back to normal glucose-containing medium under normoxic conditions (5% CO₂, 37 °C) and maintained for 24 h.
In the administration group, cells were exposed for 12 h with Cpd.51 prior to OGD. OGD lasted for 2.5 h and the reperfusion lasted for 24 h before the experiment was concluded. Subsequently, cell viability was determined using the cell counting kit-8 (CCK-8, C0039, Beyotime, China). In the experiment to explore the treatment time window, the only difference was the timing of the Cpd.51 treatment, while all other procedures remained unchanged.
Hek-293T cells were transiently transfected, using Lipofectamine™ 3000 and P3000™ reagent (L3000075, Invitrogen, USA) according to the manufacturer's instructions, with the wild-type, point-mutant and double-mutations constructs of Keap1, DHRS3 or Nrf2 (each at 0.5 ng/μL), respectively. Similarly, to promote the expression of the DHRS3 gene, a DHRS3 expression plasmids (0.5 ng/μL) was transfected as well as the corresponding negative controls into SH-SY5Y cells for 6 h, and further cultured with fresh medium for 18 h according to the manufacturer's instructions.

SH-SY5Y cells [5] = assay: Cytotoxicity in SH-SY5Y cells, 24 h incubation; type: cell-based; settings: Homo sapiens
tMCAO rats = assay: Long-term recovery after tMCAO (survival, body weight, behaviour); type: in vivo, rat; settings: 5 mg/kg tail vein injection for 7 d
Experimental: To assess the degree of neurological impairment, we conducted modified Neurological Severity Score (mNSS) according to previous experience. The investigator was blinded to the grouping situation during the whole experiment.
On postoperative day 3 two wooden boards of identical size were joined at a 30° angle, with a narrow gap retained at the junction. The rat was positioned facing the apex of the angle. When it advanced into the deeper part of the angle, bilateral whisker contact with the boards triggered a characteristic rearing response, followed by a turn to face the opposite direction. Each rat underwent 15 trials, and the number of right turns was recorded. The higher the right-turn ratio, the more severe the injury.
Rats were placed on a horizontal, stainless steel wire grid. The grid was then smoothly rotated 180 degrees to an inverted position and held stationary at a height of 0.8 m. A stopwatch was started immediately upon inversion to measure the latency to fall. The test was terminated if the animal remained on the grid for 60 s, at which point it was gently returned to its home cage, and a score of 60 s was recorded.
The Y-maze apparatus consisted of three symmetrically arranged enclosed arms (typically labeled Arms A, B, and C), each positioned 120° apart. At the start of each trial, the subject was placed in Arm A and allowed to move freely through the maze for 8 min. Spatial working memory was evaluated by calculating the spontaneous alternation rate, using the following formula:
Following a 2 h acclimation period, the rats were within an open field cubic box (100 × 100 × 40 cm^3) and allowed 5 min of unrestricted movement. The travel distance and the time spent in the central area were recorded.
The spatial learning and memory of rats were assessed using the Morris water maze (MWM) from post-operative days 23 to 26. Over four consecutive days, animals underwent training trials in which they were required to locate a submerged escape platform within 60 s. Each rat was gently placed into the water facing the pool wall. If the rat found the platform and remained on it for 10 s, the escape latency was recorded. If the platform was not found within 60 s, the rat was guided onto it and allowed to stay for 10 s, and the latency was recorded as 60 s. Following the training phase, the platform was removed, and a visual spatial memory test lasting for 60 s was conducted to assess the retention of memory. The number of platform-location crossings and the time spent in the target quadrant were recorded and analyzed.

[6] = design: method as in PMID 40455368; settings: 28-day, oral 10 mg/kg, rats; cited from earlier work
[7] = biological target: T1, Human recombinant Keap1 proteins (Homo sapiens, UniProt Q14145); assay: SPR binding to full-length Keap1; design: purchased Sinobiological ME18DE0203; settings: read-out: KD of Oma (Keap1)
Experimental: The binding affinity of Cpd.51 or Oma to Keap1 proteins were measured using a Biacore T200. The overall experimental procedures were based on previous reports, [28]. Human recombinant Keap1 proteins or truncated form of Keap1 (residues 48-180 and residues 48-149) were captured on a CM5 chip by a standard amine coupling procedure. Binding sensorgrams were recorded by injecting various concentrations of Cpd.51 over the immobilized proteins surface. The dissociation constant was obtained by globally fitting the data (to the 1:1 Langmuir binding model using the Biacore Insight evaluation software (Cytiva, Marlborough, MA, USA). Affinity tests for Cpd.51 and DHRS3 were also performed using the aforementioned method.

[8] = cited from earlier work
[9] = design: method as in PMID 37155124; settings: clinical; cited from earlier work
[10] = biological target: T1, Human recombinant Keap1 proteins; settings: cited from earlier work
[11] = Oma 10 mg/kg, Cpd.51 1, 3 and 10 mg/kg

T1 sequence (Q14145 whole entry, the tested form may be a part): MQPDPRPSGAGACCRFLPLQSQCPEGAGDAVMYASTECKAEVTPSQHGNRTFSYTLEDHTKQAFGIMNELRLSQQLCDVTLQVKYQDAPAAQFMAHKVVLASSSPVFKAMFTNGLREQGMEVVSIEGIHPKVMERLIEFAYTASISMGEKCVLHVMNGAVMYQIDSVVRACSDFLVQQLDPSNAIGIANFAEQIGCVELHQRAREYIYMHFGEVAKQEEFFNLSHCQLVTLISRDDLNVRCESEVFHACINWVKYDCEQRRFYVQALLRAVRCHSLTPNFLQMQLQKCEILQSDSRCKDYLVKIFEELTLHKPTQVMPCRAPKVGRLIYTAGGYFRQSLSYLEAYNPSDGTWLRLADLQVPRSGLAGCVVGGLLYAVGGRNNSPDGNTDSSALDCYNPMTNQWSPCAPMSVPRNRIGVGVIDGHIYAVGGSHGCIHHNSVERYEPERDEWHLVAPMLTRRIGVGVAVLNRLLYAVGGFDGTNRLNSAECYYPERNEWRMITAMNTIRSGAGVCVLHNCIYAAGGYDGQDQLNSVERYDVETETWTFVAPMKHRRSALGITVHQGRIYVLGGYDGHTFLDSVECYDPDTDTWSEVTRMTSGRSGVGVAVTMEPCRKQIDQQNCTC
Sequence of Nrf2 (Q16236 whole entry): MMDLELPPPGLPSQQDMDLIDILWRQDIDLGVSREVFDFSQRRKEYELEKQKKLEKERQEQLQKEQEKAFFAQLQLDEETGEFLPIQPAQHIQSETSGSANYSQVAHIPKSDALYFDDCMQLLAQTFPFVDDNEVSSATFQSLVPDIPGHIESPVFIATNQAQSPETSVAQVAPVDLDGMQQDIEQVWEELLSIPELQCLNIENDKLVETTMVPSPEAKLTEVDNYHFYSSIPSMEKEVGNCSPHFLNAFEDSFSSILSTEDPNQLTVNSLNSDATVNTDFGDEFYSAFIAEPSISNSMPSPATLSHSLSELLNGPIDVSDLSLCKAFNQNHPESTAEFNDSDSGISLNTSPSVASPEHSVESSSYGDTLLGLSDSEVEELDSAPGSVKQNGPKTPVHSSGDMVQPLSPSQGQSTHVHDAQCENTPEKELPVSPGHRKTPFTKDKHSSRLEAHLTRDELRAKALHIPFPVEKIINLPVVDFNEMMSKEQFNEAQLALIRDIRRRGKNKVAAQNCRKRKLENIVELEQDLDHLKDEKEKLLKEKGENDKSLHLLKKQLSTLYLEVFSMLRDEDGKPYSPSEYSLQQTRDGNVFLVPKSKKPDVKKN

Compound | liver and kidney indices ([1]; 10 mg/kg, female and male rats) | body weight [1, 11] | plasma markers of hepatic and renal injury [1, 11] | liver hypertrophy, serum GPT and GOT [2] | serum CRE and BUN [2] | weight gain [2] | EC50 [3] | OGD/R damage when administered at different time points (SH-SY5Y cells [4]; 100 nM, CCK-8) | EC50 (SH-SY5Y cells [4]; Homo sapiens, SH-SY5Y, read-out: EC50 against OGD/R damage) | IC50 (SH-SY5Y cells [5]) | body weight and mNSS scores, long-term (tMCAO rats) | corner, inverted screen, Y maze and open field tests (tMCAO rats; vs model group) | hepatotoxicity (liver weight, plasma ALT) [6] | Kd [7] | patients developing liver injury during clinical trials [8] | apparent volume of distribution (Vd) [9] | terminal half-life (T1/2) [9] | Kd [10]
CC1(C)CC[C@]2(NC(=O)C(C)(F)F)CC[C@]3(C)[C@H](C(=O)C=C4[C@@]5(C)C=C(C#N)C(=O)C(C)(C)[C@@H]5CC[C@]43C)[C@@H]2C1 [Oma, Omaveloxolone, reference compound] | markedly increased the liver and kidney indices | neither compound significantly affected body weight | significantly elevated plasma markers of hepatic and renal injury | marked liver hypertrophy and elevated serum levels of glutamic-pyruvic transaminase (GPT) and glutamic oxaloacetic transaminase (GOT) | increased serum creatinine (CRE) and blood urea nitrogen (BUN) levels | suppressed weight gain | 104 nM | consistently alleviated OGD/R damage | 80.8 nM | 758 nM | significantly improved body weight and mNSS scores | exhibited improvements in neurological deficits, motor abilities, and spatial working and reference memory | induced hepatotoxicity | 21.7 nM | ~ 37% | ~105 L/kg | ~57 h | –
Nrf2 (from UniProt Q16236) | – | – | – | – | – | – | – | – | – | – | – | – | – | – | – | – | – | 19 nM
